# Source: ChEMBL document CHEMBL1201862, “PubChem BioAssay data set” (2004)
#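 All cell lines were grown in 96-well plates and treated with compound for 48 hours. At the GI50, growth is halved.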 Activity calls are given as the source filed them. Cut-off read from the data, not from the text of the source: active = GI50 up to about 1.1 µM and inactive = higher.
# How the values were obtained:
# Experiment in all cases: inhibition of tumour cell growth, NCI panel, 48 h
# HOP-92 = system: HOP-92
# A549 = system: A549
# SK-MEL-28 = system: SK-MEL-28
# A498 = system: A498
# ACHN = system: ACHN
# RXF 631 = system: RXF 631
# DLD-1 = system: DLD-1
# HOP-18 = system: HOP-18
# Malme-3M = system: Malme-3M
# M14 = system: M14
# XF498 = system: XF498
# LXFL 529 = system: LXFL 529
# U-251 = system: U-251
# HCT-116 = system: HCT-116
# EKVX = system: EKVX
# CCRF-CEM = system: CCRF-CEM
# LOX IMVI = system: LOX IMVI
# SNB-78 = system: SNB-78
# DMS-114 = system: DMS-114
# CAKI-1 = system: CAKI-1
# KM-20L2 = system: KM-20L2
# OVCAR-8 = system: OVCAR-8
# SK-MEL-2 = system: SK-MEL-2
# OVCAR-4 = system: OVCAR-4
# UACC-257 = system: UACC-257
# M19-MEL = system: M19-MEL
# TK-10 = system: TK-10
# SK-MEL-5 = system: SK-MEL-5
# COLO 205 = system: COLO 205
# SF-539 = system: SF-539
# RXF 393 = system: RXF 393
# HOP-62 = system: HOP-62
# SNB-75 = system: SNB-75
# HCC 2998 = system: HCC 2998
# NCI-H522 = system: NCI-H522
# SF-295 = system: SF-295
# UO-31 = system: UO-31
# SR = system: SR
# KM12 = system: KM12
# HL-60 = system: HL-60
# 786-0 = system: 786-0
# IGROV-1 = system: IGROV-1
# SK-OV-3 = system: SK-OV-3
# UACC-62 = system: UACC-62
# OVCAR-3 = system: OVCAR-3
# HCT-15 = system: HCT-15
# SF-268 = system: SF-268
# SN12C = system: SN12C
# NCI-H226 = system: NCI-H226
# NCI-H460 = system: NCI-H460
# K562 = system: K562
# NCI-H23 = system: NCI-H23
# RPMI-8226 = system: RPMI-8226
# OVCAR-5 = system: OVCAR-5
# HT-29 = system: HT-29
# MOLT-4 = system: MOLT-4
# SNB-19 = system: SNB-19
# DMS-273 = system: DMS-273
# SW-620 = system: SW-620
smiles,measurement,setting,value
CC(C)=CCC/C(C)=C/CC/C(C)=C/C1CCC(=O)C1(C)C (stereo unspecified),GI50,HOP-92,25.9 µM (inactive)
same,GI50,A549,27 µM (inactive)
same,GI50,SK-MEL-28,22.1 µM (inactive)
same,GI50,A498,18.5 µM (inactive)
same,GI50,ACHN,16.6 µM (inactive)
same,GI50,RXF 631,44.6 µM (inactive)
same,GI50,DLD-1,17.4 µM (inactive)
same,GI50,HOP-18,22.4 µM (inactive)
same,GI50,Malme-3M,18.3 µM (inactive)
same,GI50,M14,19.5 µM (inactive)
same,GI50,XF498,18.2 µM (inactive)
same,GI50,LXFL 529,17.3 µM (inactive)
same,GI50,U-251,18.1 µM (inactive)
same,GI50,HCT-116,17 µM (inactive)
same,GI50,EKVX,19.7 µM (inactive)
same,GI50,CCRF-CEM,17.1 µM (inactive)
same,GI50,LOX IMVI,15.3 µM (inactive)
same,GI50,SNB-78,22.6 µM (inactive)
same,GI50,DMS-114,14.5 µM (inactive)
same,GI50,CAKI-1,20.7 µM (inactive)
same,GI50,KM-20L2,16.3 µM (inactive)
same,GI50,OVCAR-8,19.6 µM (inactive)
same,GI50,SK-MEL-2,17.4 µM (inactive)
same,GI50,OVCAR-4,24.9 µM (inactive)
same,GI50,UACC-257,21.3 µM (inactive)
same,GI50,M19-MEL,19.2 µM (inactive)
same,GI50,TK-10,39.4 µM (inactive)
same,GI50,SK-MEL-5,15.1 µM (inactive)
same,GI50,COLO 205,16.2 µM (inactive)
same,GI50,SF-539,19.5 µM (inactive)
same,GI50,RXF 393,22.1 µM (inactive)
same,GI50,HOP-62,26.5 µM (inactive)
same,GI50,SNB-75,28.5 µM (inactive)
same,GI50,HCC 2998,22.9 µM (inactive)
same,GI50,NCI-H522,15.2 µM (inactive)
same,GI50,SF-295,18.3 µM (inactive)
same,GI50,UO-31,17 µM (inactive)
same,GI50,SR,19.7 µM (inactive)
same,GI50,KM12,16.3 µM (inactive)
same,GI50,HL-60,11.6 µM (inactive)
same,GI50,786-0,17.9 µM (inactive)
same,GI50,IGROV-1,19.1 µM (inactive)
same,GI50,SK-OV-3,30.3 µM (inactive)
same,GI50,UACC-62,19.1 µM (inactive)
same,GI50,OVCAR-3,17.1 µM (inactive)
same,GI50,HCT-15,15.5 µM
same,GI50,SF-268,17.1 µM (inactive)
same,GI50,SN12C,16.2 µM (inactive)
same,GI50,NCI-H226,14.7 µM (inactive)
same,GI50,NCI-H460,17.5 µM (inactive)
same,GI50,K562,19.8 µM (inactive)
same,GI50,NCI-H23,20.3 µM (inactive)
same,GI50,RPMI-8226,20 µM (inactive)
same,GI50,OVCAR-5,19.1 µM (inactive)
same,GI50,HT-29,17.5 µM (inactive)
same,GI50,MOLT-4,22.8 µM (inactive)
same,GI50,SNB-19,25.1 µM (inactive)
Cc1cc(Br)cc(C)c1NC(=O)C(=O)C(C(=O)c1ccc2ccccc2c1)C1OC(=O)c2ccccc21 (stereo unspecified),GI50,HOP-92,1.58 µM (inactive)
same,GI50,A549,22.4 µM (inactive)
same,GI50,SK-MEL-28,8.97 µM (inactive)
same,GI50,A498,12 µM (inactive)
same,GI50,ACHN,15.2 µM (inactive)
same,GI50,DMS-273,11 µM (inactive)
same,GI50,RXF 631,16.4 µM (inactive)
same,GI50,DLD-1,13 µM (inactive)
same,GI50,HOP-18,21.7 µM (inactive)
same,GI50,Malme-3M,14.7 µM (inactive)
same,GI50,M14,15.6 µM (inactive)
same,GI50,XF498,1.14 µM (inactive)
same,GI50,LXFL 529,7.93 µM (inactive)
same,GI50,U-251,5.78 µM (inactive)
same,GI50,HCT-116,8.91 µM (inactive)
same,GI50,EKVX,19.5 µM (inactive)
same,GI50,CCRF-CEM,3.94 µM (inactive)
same,GI50,LOX IMVI,12.1 µM (inactive)
same,GI50,SNB-78,> 10 µM (inactive)
same,GI50,DMS-114,7.78 µM (inactive)
same,GI50,CAKI-1,15.7 µM (inactive)
same,GI50,KM-20L2,19.2 µM (inactive)
same,GI50,OVCAR-8,7.18 µM (inactive)
same,GI50,SK-MEL-2,16 µM (inactive)
same,GI50,OVCAR-4,5.14 µM (inactive)
same,GI50,UACC-257,10.7 µM (inactive)
same,GI50,M19-MEL,12.4 µM (inactive)
same,GI50,TK-10,21.1 µM (inactive)
same,GI50,SK-MEL-5,11.2 µM (inactive)
same,GI50,COLO 205,16.3 µM (inactive)
same,GI50,SF-539,2.69 µM (inactive)
same,GI50,RXF 393,5.93 µM (inactive)
same,GI50,HOP-62,12.2 µM (inactive)
same,GI50,SNB-75,14.3 µM (inactive)
same,GI50,HCC 2998,11 µM (inactive)
same,GI50,NCI-H522,8.65 µM (inactive)
same,GI50,SF-295,4.59 µM (inactive)
same,GI50,UO-31,15.8 µM (inactive)
same,GI50,SR,2.47 µM (inactive)
same,GI50,KM12,15.5 µM (inactive)
same,GI50,HL-60,4.45 µM (inactive)
same,GI50,786-0,6.03 µM (inactive)
same,GI50,IGROV-1,18.2 µM (inactive)
same,GI50,SK-OV-3,78.5 µM (inactive)
same,GI50,UACC-62,12.9 µM (inactive)
same,GI50,OVCAR-3,19.5 µM (inactive)
same,GI50,HCT-15,17.3 µM
same,GI50,SF-268,7.98 µM (inactive)
same,GI50,SN12C,19.7 µM (inactive)
same,GI50,NCI-H226,4.85 µM (inactive)
same,GI50,NCI-H460,4.66 µM (inactive)
same,GI50,K562,5.93 µM (inactive)
same,GI50,SW-620,8.02 µM (inactive)
same,GI50,NCI-H23,7.53 µM (inactive)
same,GI50,RPMI-8226,5.94 µM (inactive)
same,GI50,OVCAR-5,7.14 µM (inactive)
same,GI50,HT-29,18.2 µM (inactive)
same,GI50,MOLT-4,2.31 µM (inactive)
same,GI50,SNB-19,8 µM (inactive)
